Experimental findings from patent US20220380338A1, “CYCLOALKYL 3-OXOPIPERAZINE CARBOXAMIDES AND CYCLOHETEROALKYL 3-OXOPIPERAZINE CARBOXAMIDES AS NAV1.8 INHIBITORS” (Merck Sharp & Dohme LLC, priority 2021, published 2022) are described below.

The target of the assay is T1, human NaV1.8 (Homo sapiens, UniProt Q9Y5Y9).
T1 construct: expressed in transfected cells
T1 sequence (Q9Y5Y9 whole entry): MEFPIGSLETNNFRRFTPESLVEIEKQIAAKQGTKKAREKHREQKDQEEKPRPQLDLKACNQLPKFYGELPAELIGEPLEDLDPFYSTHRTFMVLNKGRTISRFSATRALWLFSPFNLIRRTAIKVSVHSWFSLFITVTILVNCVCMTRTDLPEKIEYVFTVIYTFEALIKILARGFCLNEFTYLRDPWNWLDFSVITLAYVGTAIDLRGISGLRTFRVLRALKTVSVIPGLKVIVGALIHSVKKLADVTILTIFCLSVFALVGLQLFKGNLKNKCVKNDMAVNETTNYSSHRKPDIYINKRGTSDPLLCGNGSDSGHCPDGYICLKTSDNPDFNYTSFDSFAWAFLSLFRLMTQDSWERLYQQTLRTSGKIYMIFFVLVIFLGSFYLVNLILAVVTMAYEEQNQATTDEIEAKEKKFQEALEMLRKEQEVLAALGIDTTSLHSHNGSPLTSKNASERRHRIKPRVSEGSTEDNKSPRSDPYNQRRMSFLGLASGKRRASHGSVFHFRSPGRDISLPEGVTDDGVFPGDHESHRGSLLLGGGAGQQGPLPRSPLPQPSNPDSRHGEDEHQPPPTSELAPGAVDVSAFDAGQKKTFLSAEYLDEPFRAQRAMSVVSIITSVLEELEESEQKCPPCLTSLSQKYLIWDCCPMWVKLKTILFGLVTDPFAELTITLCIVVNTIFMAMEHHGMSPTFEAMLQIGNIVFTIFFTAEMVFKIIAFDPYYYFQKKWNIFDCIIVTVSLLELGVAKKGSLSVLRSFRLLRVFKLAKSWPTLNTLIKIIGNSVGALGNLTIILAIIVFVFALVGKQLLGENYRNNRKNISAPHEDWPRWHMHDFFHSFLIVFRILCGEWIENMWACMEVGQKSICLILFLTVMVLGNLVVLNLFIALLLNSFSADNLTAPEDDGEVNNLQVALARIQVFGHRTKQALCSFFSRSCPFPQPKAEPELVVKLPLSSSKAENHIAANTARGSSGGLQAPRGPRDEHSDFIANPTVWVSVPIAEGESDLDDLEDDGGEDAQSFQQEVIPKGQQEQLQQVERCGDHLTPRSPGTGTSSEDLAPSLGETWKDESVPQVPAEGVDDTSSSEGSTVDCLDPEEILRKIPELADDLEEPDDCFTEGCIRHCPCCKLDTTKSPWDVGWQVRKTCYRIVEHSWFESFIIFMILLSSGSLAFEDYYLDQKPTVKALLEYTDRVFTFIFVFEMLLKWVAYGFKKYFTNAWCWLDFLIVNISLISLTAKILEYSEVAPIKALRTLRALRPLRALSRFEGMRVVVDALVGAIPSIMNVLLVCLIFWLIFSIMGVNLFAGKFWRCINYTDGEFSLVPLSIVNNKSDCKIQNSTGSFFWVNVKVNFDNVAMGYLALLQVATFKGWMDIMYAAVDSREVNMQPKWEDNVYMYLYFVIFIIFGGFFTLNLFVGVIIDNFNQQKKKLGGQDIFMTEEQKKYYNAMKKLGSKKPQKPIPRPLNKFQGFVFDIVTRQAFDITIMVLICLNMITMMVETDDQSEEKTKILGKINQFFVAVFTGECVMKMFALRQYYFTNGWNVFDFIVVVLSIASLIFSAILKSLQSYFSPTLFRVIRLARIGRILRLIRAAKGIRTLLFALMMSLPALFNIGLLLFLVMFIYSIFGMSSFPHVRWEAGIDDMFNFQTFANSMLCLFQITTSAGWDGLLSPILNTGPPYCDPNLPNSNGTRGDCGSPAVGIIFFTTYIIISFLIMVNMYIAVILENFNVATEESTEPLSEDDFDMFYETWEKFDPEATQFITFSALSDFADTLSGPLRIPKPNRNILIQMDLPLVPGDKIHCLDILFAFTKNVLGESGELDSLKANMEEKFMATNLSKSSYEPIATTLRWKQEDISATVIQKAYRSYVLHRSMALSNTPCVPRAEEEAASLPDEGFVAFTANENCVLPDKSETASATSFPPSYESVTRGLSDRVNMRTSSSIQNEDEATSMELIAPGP
As to the kind of experiment: Nav1.8 Qube® Assay (automated 384-well patch-clamp, inhibition of sodium current). Type of assay: cell-based. The note with it: human NaV1.8 channels stably expressed in HEK 293 cells, room temperature. The method, boiled down: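 Whole-cell voltage clamp at room temperature in HEK293 cells stably expressing NaV1.8; from −90 mV hold, 10 s 1 Hz train of 20 ms pulses to 10 mV with 980 ms repolarization to −67 mV. Peak currents of 1st and 10th pulses give resting and inactivated-state IC50s, Hill fit.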
`O=C1NCCN(C(=O)N[C@H](c2ccc(F)c(Cl)c2F)[C@H]2C[C@H](C(F)(F)F)C2)C1C1CC1` (single isomer, unassigned) [Example 27B, (S or R)—N—((S)-(3-chloro-2,4-difluorophenyl)(trans-3-(trifluoromethyl)cyclobutyl)methyl)-2-cyclopropyl-3-oxopiperazine-1-carboxamide]: the concentration for half-maximal inhibition (IC50) is 107 nM.

`C[C@@H]1C(=O)NCCN1C(=O)NC(c1ccc(F)c(Cl)c1F)C1CC2(CC2)C1` (single isomer, unassigned) [Example 28A, (2R)—N—((R or S)-(3-chloro-2,4-difluorophenyl)(spiro[2.3]hexan-5-yl)methyl)-2-methyl-3-oxopiperazine-1-carboxamide] displayed an IC50 of 2.65 nM.

Consider `C[C@@H]1C(=O)NCCN1C(=O)NC(c1ccc(F)c(Cl)c1F)C1CC2(CC2)C1` (single isomer, unassigned) [Example 28B, (2R)—N—((S or R)-(3-chloro-2,4-difluorophenyl)(spiro[2.3]hexan-5-yl)methyl)-2-methyl-3-oxopiperazine-1-carboxamide], for which the half-inhibitory concentration (IC50) stood at 191 nM.

As for `C[C@@H]1C(=O)NCCN1C(=O)NC(c1ccc(F)c(Cl)c1F)[C@H]1C[C@H](C(F)F)C1` (single isomer, unassigned) [Example 29A], the 50% inhibitory concentration (IC50) was determined as 8.91 nM.

`C[C@@H]1C(=O)NCCN1C(=O)NC(c1ccc(F)c(Cl)c1F)[C@H]1C[C@H](C(F)F)C1` (single isomer, unassigned) [Example 29B] returned a half-inhibitory concentration (IC50) of 66.5 nM.

In turn, `C[C@@H]1C(=O)NCCN1C(=O)NC(c1ccc(F)c(Cl)c1F)C12CC(C(F)(F)F)(C1)C2` (single isomer, unassigned) [Example 30A] registered a 50% inhibitory concentration (IC50) of 281 nM.

For the compound `C[C@@H]1C(=O)NCCN1C(=O)NC(c1ccc(F)c(Cl)c1F)C12CC(C(F)(F)F)(C1)C2` (single isomer, unassigned) [Example 30B], the half-maximal inhibitory concentration (IC50) came to 3.12 nM.

`C[C@@H]1C(=O)NCCN1C(=O)NC(c1ccc(F)c(Cl)c1F)C1CC(C)(C)C1` (single isomer, unassigned) [Example 31A, (2R)-N-((R or S)-(3-chloro-2,4-difluoro-phenyl)(3,3-dimethyl-cyclobutyl)methyl)-2-methyl-3-oxopiperazine-1-carboxamide] came in with an IC50 of 0.74 nM.

The compound `C[C@@H]1C(=O)NCCN1C(=O)NC(c1ccc(F)c(Cl)c1F)C1CC(C)(C)C1` (single isomer, unassigned) [Example 31B, (2R)-N-((S or R)-(3-chloro-2,4-difluoro-phenyl)(3,3-dimethyl-cyclobutyl)methyl)-2-methyl-3-oxopiperazine-1-carboxamide] came in with a half-inhibitory concentration (IC50) of 71 nM.

For the compound `C[C@@H]1C(=O)NCCN1C(=O)NC(c1ccc(C(F)(F)F)nc1)C1CC(C)(C)C1` (single isomer, unassigned) [Example 33A, (2R)-N-((R or S)-(3,3-dimethylcyclobutyl)(6-(trifluoromethyl)pyridin-3-yl)methyl)-2-methyl-3-oxopiperazine-1-carboxamide], the IC50 is 135 nM.

With `C[C@@H]1C(=O)NCCN1C(=O)NC(c1ccc(C(F)(F)F)nc1)C1CC(C)(C)C1` (single isomer, unassigned) [Example 33B, (2R)-N-((S or R)-(3,3-dimethylcyclobutyl)(6-(trifluoromethyl)pyridin-3-yl)methyl)-2-methyl-3-oxopiperazine-1-carboxamide], the IC50 came out at 3590 nM.

For the compound `O=C1CN(C(=O)NC(c2ccc(F)c(Cl)c2)C23CC(C(F)(F)F)(C2)C3)CCN1` (single isomer, unassigned) [Example 34A, N-((R or S)-(3-chloro-4-fluorophenyl)(3-(trifluoromethyl)bicyclo [1.1.1]pentan-1-yl)methyl)-3-oxopiperazine-1-carboxamide], the IC50 is 601 nM.

The compound `O=C1CN(C(=O)NC(c2ccc(F)c(Cl)c2)C23CC(C(F)(F)F)(C2)C3)CCN1` (single isomer, unassigned) [Example 34B, N-((S or R)-(3-chloro-4-fluorophenyl)(3-(trifluoromethyl)bicyclo [1.1.1]pentan-1-yl)methyl)-3-oxopiperazine-1-carboxamide] showed a concentration for half-maximal inhibition (IC50) of 47.1 nM.

Regarding `C[C@@H]1C(=O)NCCN1C(=O)NC(c1ccc(F)c(Cl)c1)C12CC(C(F)(F)F)(C1)C2` (single isomer, unassigned) [Example 35A, (2R)-N-((R or S)-(3-chloro-4-fluoro-phenyl)(3-(trifluoro-methyl)bicyclo[1.1.1]pen-tan-1-yl)methyl)-2-methyl-3-oxopiperazine-1-carboxamide], the midpoint of inhibition, the IC50, lay at 6.08 nM.

Compound `C[C@@H]1C(=O)NCCN1C(=O)NC(c1ccc(F)c(Cl)c1)C12CC(C(F)(F)F)(C1)C2` (single isomer, unassigned) [Example 35B, (2R)-N-((S or R)-(3-chloro-4-fluoro-phenyl)(3-(trifluoro-methyl)bicyclo[1.1.1]pen-tan-1-yl)methyl)-2-methyl-3-oxopiperazine-1-carboxamide] displayed an IC50 of 48.6 nM.

On to `Cc1cc(C(NC(=O)N2CCNC(=O)[C@H]2C)C2CCC(C(F)(F)F)CC2)ccc1F` (single isomer, unassigned) [Example 36A], for which the midpoint of inhibition, the IC50, lay at 55.7 nM.

As for `Cc1cc(C(NC(=O)N2CCNC(=O)[C@H]2C)C2CCC(C(F)(F)F)CC2)ccc1F` (single isomer, unassigned) [Example 36B], the IC50 stood at 74.6 nM.

In the case of `Cc1cc(C(NC(=O)N2CCNC(=O)[C@H]2C)C2CCC(C(F)(F)F)CC2)ccc1F` (single isomer, unassigned) [Example 36C], the IC50 was 58.1 nM.

For the compound `Cc1cc(C(NC(=O)N2CCNC(=O)[C@H]2C)C2CCC(C(F)(F)F)CC2)ccc1F` (single isomer, unassigned) [Example 36D], the IC50 stood at 3.99 nM.

Take `C[C@@H]1C(=O)NCCN1C(=O)NC(c1ccc(Cl)c(C(F)F)c1)C1CCC(C(F)(F)F)CC1` (single isomer, unassigned) [Example 37A, (2R)-N-((R or S)-(4-chloro-3-(difluoro-methyl)phenyl)(cis-4-(trifluoromethyl)cyclohexyl)methyl)-2-methyl-3-oxopiperazine-1-carboxamide]: the IC50 is 108 nM.

For `C[C@@H]1C(=O)NCCN1C(=O)NC(c1ccc(Cl)c(C(F)F)c1)C1CCC(C(F)(F)F)CC1` (single isomer, unassigned) [Example 37B, (2R)-N-((R or S)-(4-chloro-3-(difluoro-methyl)phenyl)(trans-4-(trifluoromethyl)cyclohexyl)methyl)-2-methyl-3-oxopiperazine-1-carboxamide], 145 nM corresponded to half-maximal inhibition (IC50).

The compound `C[C@@H]1C(=O)NCCN1C(=O)NC(c1ccc(Cl)c(C(F)F)c1)C1CCC(C(F)(F)F)CC1` (single isomer, unassigned) [Example 37C, (2R)-N-((S or R)-(4-chloro-3-(difluoro-methyl)phenyl)(cis-4-(trifluoromethyl)cyclohexyl)methyl)-2-methyl-3-oxopiperazine-1-carboxamide] showed a concentration for half-maximal inhibition (IC50) of 27.2 nM.

Compound `C[C@@H]1C(=O)NCCN1C(=O)NC(c1ccc(Cl)c(C(F)F)c1)C1CCC(C(F)(F)F)CC1` (single isomer, unassigned) [Example 37D, (2R)-N-((S or R)-(4-chloro-3-(difluoro-methyl)phenyl)(trans-4-(trifluoromethyl)cyclohexyl)methyl)-2-methyl-3-oxopiperazine-1-carboxamide] showed an IC50 of 1.99 nM.
